These compounds were tested on Harmaline-induced tremor (assay: Harmaline-induced Tremor Model). Details: Mus musculus, ip, adult male CD1 mice; test article 30 mg/kg i.p.; harmaline 30 mg/kg i.p.; read-out: Tremor Suppression Activity (magnitude of tremor suppression in percent compared to vehicle).
Type: in vivo
From the text: Harmaline-induced Tremor: Harmaline-induced tremor is widely recognized as an animal model of Essential Tremor (ET). Following acute administration, harmaline produces an 8-16 Hz tremor in rodents, cats, and monkeys that, like ET, is postural and kinetic, involving appendicular and axial musculature (Handforth, A. (2012). Harmaline tremor: underlying mechanisms in a potential animal model of essential tremor. Tremor and Other Hyperkinetic Movements (NY), 2, 02-92-769-1; Handforth, A. (2016). Linking Essential Tremor to the Cerebellum-Animal Model Evidence. Cerebellum, 15(3), 285-298; LeDoux, M. (2005). Harmaline tremor. In Movement Disorders. Elsevier Inc.; Louis, E. D. (2014). Re-thinking the biology of essential tremor: From models to morphology. Parkinsonism and Related Disorders, 20 (SUPPL.1), S88-S93). […] Clinical agents that suppress ET in patients are generally effective in the harmaline-induced tremor model (Handforth 2016). Following acute dosing of harmaline in mice, the tremor frequency (10-20 Hz) is typically recorded using an automated force plate-based system.
Procedure: Tremor activity was measured using a custom-made testing apparatus containing a piezoelectric sensing platform which was connected to an amplifier (A-M Systems model 1700). Adult male CD1 mice were brought to the experiment room for acclimatization 1 h prior to testing. Mice were first placed inside the testing apparatus for 10 min baseline habituation. After the initial habituation, mice were treated with vehicle (10 ml/kg) or test article (30 mg/kg, i.p.) and placed back in the apparatus for an additional 20 min baseline recording. Subsequently, animals were injected with harmaline (30 mg/kg, i.p.) and tremor activity was measured for 20 min. The electric signal of tremor activity was amplified at a sampling rate of 512 Hz with a multichannel amplifier and then acquired, quantized, and digitized by a data acquisition unit (CED Micro 1401). The software Spike2 (v 7.07, Cambridge Electronic Design, Cambridge, UK) was used to analyze the tremor signal by performing Fourier transformation of the data into frequency spectra. Changes in absolute power were expressed relative to each animal's 20-min baseline for the frequencies of 10-20 Hz. Comparisons between treatment and respective vehicle groups were assessed with two-tailed, Student's t-test. The level of statistical significance was defined as p<0.05 (see, e.g., Table 2.1) The magnitude of tremor suppression in percent compared to vehicle is shown in Table 2.2.
A tremor suppression score was defined as the magnitude of tremor suppression in percent compared to vehicle: ≤24% (D), 25-55% (C), 56-70% (B) and 71-100% (A). Not tested (---).

| SMILES | inhibition in vivo at 30 mg/kg |
| --- | --- |
| C[C@H]1COc2ccc(F)cc2[C@H]1CS(N)(=O)=O (relative stereo) [Compound 53, ((3R*,4S*)-6-fluoro-3-methylchroman-4-yl)methanesulfonamide] | 25 to 55% |
| C[C@@H]1COc2cc(F)ccc2[C@H]1NS(N)(=O)=O (relative stereo) [Compound 76, (3(S*),4(S*))-7-fluoro-3-methyl-4-(sulfamoylamino)-3,4-dihydro-2(H)-chromene] | 56 to 70% |
| NS(=O)(=O)CC1CC2(CC2)Oc2cc(F)ccc21 (single isomer, unassigned) [Compound 1, (S*)-(7-fluorospiro[chromane-2,1′-cyclopropan]-4-yl)methanesulfonamide] | 56 to 70% |
| NS(=O)(=O)CC1CCOc2cc(F)cc(F)c21 (single isomer, unassigned) [Compound 17, (S*)-(5,7-difluorochroman-4-yl)methanesulfonamide] | 56 to 70% |
| NS(=O)(=O)C1(C2CCOc3cc(F)ccc32)CC1 (single isomer, unassigned) [Compound 27, (S*)-1-(7-fluorochroman-4-yl)cyclopropane-1-sulfonamide] | ≤ 24% |
| NS(=O)(=O)CC1CCOc2cc(F)c(F)cc21 (single isomer, unassigned) [Compound 29, (S*)-(6,7-difluorochroman-4-yl)methanesulfonamide] | 56 to 70% |
| NS(=O)(=O)CC1CCOc2cc(Cl)ccc21 (single isomer, unassigned) [Compound 31, (S*)-(7-chlorochroman-4-yl)methanesulfonamide] | 71 to 100% |
| NS(=O)(=O)CC1CCOc2cc(C(F)(F)F)ccc21 (single isomer, unassigned) [Compound 37, (S*)-(7-(trifluoromethyl)chroman-4-yl)methanesulfonamide] | 56 to 70% |
| CC1(C)COc2cc(F)ccc2C1CS(N)(=O)=O (single isomer, unassigned) [Compound 43, (S*)-(7-fluoro-3,3-dimethylchroman-4-yl)methanesulfonamide] | ≤ 24% |
| CC1(C)CC(CS(N)(=O)=O)c2ccc(F)cc2O1 (single isomer, unassigned) [Compound 45, (R*)-(7-fluoro-2,2-dimethylchroman-4-yl)methanesulfonamide] | 71 to 100% |
| Cc1ccc2c(c1)OCCC2CS(N)(=O)=O (single isomer, unassigned) [Compound 57, (S*)-(7-methylchroman-4-yl)methanesulfonamide] | ≤ 24% |
| N#Cc1ccc2c(c1)OCCC2CS(N)(=O)=O (single isomer, unassigned) [Compound 59, (S*)-(7-cyanochroman-4-yl)methanesulfonamide] | ≤ 24% |
| C[C@H]1COc2cc(F)c(F)cc2[C@H]1CS(N)(=O)=O (stereo in doubt) [Compound 7, ((3R*,4S*)-6,7-difluoro-3-methylchroman-4-yl)methanesulfonamide] | 25 to 55% |
| C[C@@H]1COc2cc(F)c(F)cc2[C@@H]1CS(N)(=O)=O (stereo in doubt) [Compound 8, ((3S*,4R*)-6,7-difluoro-3-methylchroman-4-yl)methanesulfonamide] | 25 to 55% |
| C[C@@H]1COc2cc(F)c(F)cc2[C@H]1CS(N)(=O)=O (stereo in doubt) [Compound 9, ((3S*,4S*)-6,7-difluoro-3-methylchroman-4-yl)methanesulfonamide] | 25 to 55% |
| C[C@H]1COc2cc(F)c(F)cc2[C@@H]1CS(N)(=O)=O (stereo in doubt) [Compound 10, ((3R*,4R*)-6,7-difluoro-3-methylchroman-4-yl)methanesulfonamide] | ≤ 24% |

Same assay, conditions: adult male CD1 mice; test article 30 mg/kg i.p.; harmaline 30 mg/kg i.p.

| SMILES | Tremor Suppression Activity (magnitude of tremor suppression in percent compared to vehicle) |
| --- | --- |
| NS(=O)(=O)CC1CC2(CC2)Oc2cc(F)ccc21 (single isomer, unassigned) [Compound 2, (R*)-(7-fluorospiro[chromane-2,1′-cyclopropan]-4-yl)methanesulfonamide] | A (71-100% (A)) |
| NS(=O)(=O)CC1CC2(CCC2)Oc2cc(F)ccc21 (single isomer, unassigned) [Compound 3, (S*)-(7-fluorospiro[chromane-2,1′-cyclobutan]-4-yl)methane-sulfonamide] | C (25-55% (C)) |
| NS(=O)(=O)CC1CC2(CCC2)Oc2cc(F)ccc21 (single isomer, unassigned) [Compound 4, (R*)-(7-fluorospiro[chromane-2,1′-cyclobutan]-4-yl)methane-sulfonamide] | B (56-70% (B)) |
| CC1(C)CC(CS(N)(=O)=O)c2cc(F)c(F)cc2O1 (single isomer, unassigned) [Compound 5, (S*)-(6,7-difluoro-2,2-dimethylchroman-4-yl)methanesulfonamide] | C (25-55% (C)) |
| CC1(C)CC(CS(N)(=O)=O)c2cc(F)c(F)cc2O1 (single isomer, unassigned) [Compound 6, (R*)-(6,7-difluoro-2,2-dimethylchroman-4-yl)methanesulfonamide] | A (71-100% (A)) |
| NS(=O)(=O)CC1CCOc2c1ccc(F)c2F (single isomer, unassigned) [Compound 15, (S*)-(7,8-difluorochroman-4-yl)methanesulfonamide] | C (25-55% (C)) |
| NS(=O)(=O)CC1CCOc2c1ccc(F)c2F (single isomer, unassigned) [Compound 16, (R*)-(7,8-difluorochroman-4-yl)methanesulfonamide] | B (56-70% (B)) |
| NS(=O)(=O)C1(C2CCOc3cc(F)ccc32)CC1 (single isomer, unassigned) [Compound 28, (R*)-1-(7-fluorochroman-4-yl)cyclopropane-1-sulfonamide] | C (25-55% (C)) |
| NS(=O)(=O)CC1CCOc2cc(F)c(F)cc21 (single isomer, unassigned) [Compound 30, (R*)-(6,7-difluorochroman-4-yl)methanesulfonamide] | A (71-100% (A)) |
| NS(=O)(=O)CC1CCOc2cc(Cl)ccc21 (single isomer, unassigned) [Compound 32, (R*)-(7-chlorochroman-4-yl)methanesulfonamide] | B (56-70% (B)) |
| NS(=O)(=O)CC1CCOc2cc(C(F)(F)F)ccc21 (single isomer, unassigned) [Compound 38, (R*)-(7-(trifluoromethyl)chroman-4-yl)methanesulfonamide] | A (71-100% (A)) |
| CC1(C)COc2cc(F)ccc2C1CS(N)(=O)=O (single isomer, unassigned) [Compound 44, (R*)-(7-fluoro-3,3-dimethylchroman-4-yl)methanesulfonamide] | C (25-55% (C)) |
| CC1(C)CC(CS(N)(=O)=O)c2ccc(F)cc2O1 (single isomer, unassigned) [Compound 46, (S*)-(7-fluoro-2,2-dimethylchroman-4-yl)methanesulfonamide] | A (71-100% (A)) |
| N#Cc1ccc2c(c1)OCCC2CS(N)(=O)=O (single isomer, unassigned) [Compound 60, (R*)-(7-cyanochroman-4-yl)methanesulfonamide] | C (25-55% (C)) |

Same assay, conditions: adult male CD1 mice; test article 30 mg/kg i.p.; harmaline 30 mg/kg i.p.; 10-20 Hz power over 20 min relative to 20-min baseline

| SMILES | Tremor power relative to baseline (mean ± s.e.m.) |
| --- | --- |
| CC1(C)COc2cc(F)ccc2C1CS(N)(=O)=O (single isomer, unassigned) [Compound 44, (R*)-(7-fluoro-3,3-dimethylchroman-4-yl)methanesulfonamide] | 518 ± 109 |
| CC1(C)CC(CS(N)(=O)=O)c2ccc(F)cc2O1 (single isomer, unassigned) [Compound 45, (R*)-(7-fluoro-2,2-dimethylchroman-4-yl)methanesulfonamide] | 144 ± 35 |
| CC1(C)CC(CS(N)(=O)=O)c2ccc(F)cc2O1 (single isomer, unassigned) [Compound 46, (S*)-(7-fluoro-2,2-dimethylchroman-4-yl)methanesulfonamide] | 145 ± 27 |
